PubChem BioAssay AID1259407 (Chemical Carcinogenesis Research Information System (CCRIS), 2018)
Calls of active or inactive are those of the source. The rule behind the calls is not given here.

System: CCRIS mutagenicity, Ames/micronucleus/aberration tests
Assay: CCRIS mutagenicity studies
[1] = Test System: AMES SALMONELLA TYPHIMURIUM, Strain/Indicator: TA100, Metabolic Activation: NONE, Method: STANDARD PLATE
[2] = Test System: UDS RAT HEPATOCYTES, Strain/Indicator: THY INCORP, Metabolic Activation: NONE, Method: AUTORADIOGRAPHY
[3] = Test System: AMES SALMONELLA TYPHIMURIUM, Strain/Indicator: TA98, Metabolic Activation: RAT, LIVER, S-9, AROCLOR 1254, Method: PREINCUBATION
[4] = Test System: AMES SALMONELLA TYPHIMURIUM, Strain/Indicator: TA100, Metabolic Activation: RAT, LIVER, S-9, AROCLOR 1254, Method: PREINCUBATION

With NC[C@H]1CCCN1.O=C([O-])C1(C(=O)[O-])CCC1.[Pt+2] the mutagenic call (Test System: AMES SALMONELLA TYPHIMURIUM, Strain/Indicator: TA98, Metabolic Activation: NONE, Method: STANDARD PLATE) was “inactive; negative”, the mutagenic call (Test System: AMES SALMONELLA TYPHIMURIUM, Strain/Indicator: TA98, Metabolic Activation: RAT, LIVER, S-9, PHENOBARBITAL AND 5,6-BENZOFLAVONE, Method: STANDARD PLATE) was “inactive; negative” and the mutagenic call [1] was “inactive; negative”. The mutagenic call (Test System: AMES SALMONELLA TYPHIMURIUM, Strain/Indicator: TA100, Metabolic Activation: RAT, LIVER, S-9, PHENOBARBITAL AND 5,6-BENZOFLAVONE, Method: STANDARD PLATE) was “inactive; negative”, the mutagenic call (Test System: AMES SALMONELLA TYPHIMURIUM, Strain/Indicator: TA1535, Metabolic Activation: NONE, Method: STANDARD PLATE) was “inactive; negative” and the mutagenic call (Test System: AMES SALMONELLA TYPHIMURIUM, Strain/Indicator: TA1535, Metabolic Activation: RAT, LIVER, S-9, PHENOBARBITAL AND 5,6-BENZOFLAVONE, Method: STANDARD PLATE) was “inactive; negative”. The mutagenic call (Test System: AMES SALMONELLA TYPHIMURIUM, Strain/Indicator: TA1537, Metabolic Activation: NONE, Method: STANDARD PLATE) was “inactive; negative”, the mutagenic call (Test System: AMES SALMONELLA TYPHIMURIUM, Strain/Indicator: TA1537, Metabolic Activation: RAT, LIVER, S-9, PHENOBARBITAL AND 5,6-BENZOFLAVONE, Method: STANDARD PLATE) was “inactive; negative” and the mutagenic call (Test System: E. COLI, Strain/Indicator: WP2 UVRA, Metabolic Activation: NONE, Method: STANDARD PLATE) was “inactive; negative”. The mutagenic call (Test System: E. COLI, Strain/Indicator: WP2 UVRA, Metabolic Activation: RAT, LIVER, S-9, PHENOBARBITAL AND 5,6-BENZOFLAVONE, Method: STANDARD PLATE) was “inactive; negative”.

For CC(=O)O[C@@]1(C)C(=O)OC/C2=C/CN(C)CC[C@@H](OC(=O)[C@]3(C[C@H]1C)O[C@@H]3C)C2=O, the mutagenic call [2] was “active; positive”.

For CCCCNN, the mutagenic call (Test System: AMES SALMONELLA TYPHIMURIUM, Strain/Indicator: TA100, Metabolic Activation: NONE, Method: PREINCUBATION (11 HR GROWTH PERIOD FOR BACTERIA)) was “active; positive”, the mutagenic call (Test System: AMES SALMONELLA TYPHIMURIUM, Strain/Indicator: TA100, Metabolic Activation: RAT, LIVER, S-9, PCB, Method: PREINCUBATION (11 HR GROWTH PERIOD FOR BACTERIA)) was “inactive; negative” and the mutagenic call (Test System: AMES SALMONELLA TYPHIMURIUM, Strain/Indicator: TA102, Metabolic Activation: NONE, Method: PREINCUBATION (5 OR 7 HR GROWTH PERIOD FOR BACTERIA)) was “active; positive”. For the same compound, the mutagenic call (Test System: AMES SALMONELLA TYPHIMURIUM, Strain/Indicator: TA102, Metabolic Activation: RAT, LIVER, S-9, PCB, Method: PREINCUBATION (5 HR GROWTH PERIOD FOR BACTERIA)) was “inactive; negative” and the mutagenic call (Test System: AMES SALMONELLA TYPHIMURIUM, Strain/Indicator: TA102, Metabolic Activation: RAT, LIVER, S-9, PCB, Method: PREINCUBATION (7 HR GROWTH PERIOD FOR BACTERIA)) was “active; positive”.

In the case of Cc1cc(=O)oc2cc(O)ccc12, the mutagenic call (Test System: AMES SALMONELLA TYPHIMURIUM, Strain/Indicator: TA98, Metabolic Activation: HAMSTER, LIVER, S-9, AROCLOR 1254, Method: PREINCUBATION) is reported as “inactive; negative”, the mutagenic call (Test System: AMES SALMONELLA TYPHIMURIUM, Strain/Indicator: TA98, Metabolic Activation: NONE, Method: PREINCUBATION) is reported as “inactive; negative” and the mutagenic call [3] is reported as “inactive; negative”. The mutagenic call (Test System: AMES SALMONELLA TYPHIMURIUM, Strain/Indicator: TA100, Metabolic Activation: HAMSTER, LIVER, S-9, AROCLOR 1254, Method: PREINCUBATION) was “inactive; negative”, the mutagenic call (Test System: AMES SALMONELLA TYPHIMURIUM, Strain/Indicator: TA100, Metabolic Activation: NONE, Method: PREINCUBATION) was “inactive; negative” and the mutagenic call [4] was “inactive; negative”. The mutagenic call (Test System: AMES SALMONELLA TYPHIMURIUM, Strain/Indicator: TA1535, Metabolic Activation: HAMSTER, LIVER, S-9, AROCLOR 1254, Method: PREINCUBATION) was “inactive; negative”, the mutagenic call (Test System: AMES SALMONELLA TYPHIMURIUM, Strain/Indicator: TA1535, Metabolic Activation: NONE, Method: PREINCUBATION) was “inactive; negative” and the mutagenic call (Test System: AMES SALMONELLA TYPHIMURIUM, Strain/Indicator: TA1535, Metabolic Activation: RAT, LIVER, S-9, AROCLOR 1254, Method: PREINCUBATION) was “inactive; negative”. The mutagenic call (Test System: AMES SALMONELLA TYPHIMURIUM, Strain/Indicator: TA1537, Metabolic Activation: HAMSTER, LIVER, S-9, AROCLOR 1254, Method: PREINCUBATION) was “inactive; negative”, the mutagenic call (Test System: AMES SALMONELLA TYPHIMURIUM, Strain/Indicator: TA1537, Metabolic Activation: NONE, Method: PREINCUBATION) was “inactive; negative” and the mutagenic call (Test System: AMES SALMONELLA TYPHIMURIUM, Strain/Indicator: TA1537, Metabolic Activation: RAT, LIVER, S-9, AROCLOR 1254, Method: PREINCUBATION) was “inactive; negative”.

For c1cc2c3c(c1)C1NC1c1cccc(c1-3)C1NC21 (stereo not given), the mutagenic call [1] was “active; positive”.

In the case of Cc1c(N)nc(C)c2c1[nH]c1ccccc12, the mutagenic call (Test System: AMES SALMONELLA TYPHIMURIUM, Strain/Indicator: TA98, Metabolic Activation: HUMAN, BLOOD, CYTOSOL, Method: PREINCUBATION) is reported as “active; positive”, the mutagenic call (Test System: AMES SALMONELLA TYPHIMURIUM, Strain/Indicator: TA98, Metabolic Activation: MONKEY, LIVER, S-9, Method: PREINCUBATION) is reported as “active; positive” and the mutagenic call (Test System: AMES SALMONELLA TYPHIMURIUM, Strain/Indicator: TA98, Metabolic Activation: MOUSE, LIVER, MICROSOMES, TCDD, Method: STANDARD PLATE) is reported as “active; positive”. The mutagenic call (Test System: AMES SALMONELLA TYPHIMURIUM, Strain/Indicator: TA98, Metabolic Activation: MOUSE, LIVER, MICROSOMES, Method: STANDARD PLATE) was “active; positive”, the mutagenic call (Test System: AMES SALMONELLA TYPHIMURIUM, Strain/Indicator: TA98, Metabolic Activation: RAT, BLADDER, S-9, PCB, Method: FLUCTUATION TEST) was “active; positive” and the mutagenic call (Test System: AMES SALMONELLA TYPHIMURIUM, Strain/Indicator: TA98, Metabolic Activation: RAT, HEPATOCYTES, AROCLOR 1254, Method: PREINCUBATION) was “active; positive”. For the same compound, the mutagenic call [3] was “active; positive”, the mutagenic call (Test System: AMES SALMONELLA TYPHIMURIUM, Strain/Indicator: TA100, Metabolic Activation: RAT, BLADDER, S-9, PCB, Method: FLUCTUATION TEST) was “active; positive” and the mutagenic call [4] was “inactive; negative”. For the same compound, the mutagenic call (Test System: AMES SALMONELLA TYPHIMURIUM, Strain/Indicator: YG1019, Metabolic Activation: RAT LIVER S-9, AROCLOR, Method: PREINCUBATION) was “active; positive”, the mutagenic call (Test System: CHINESE HAMSTER V-79, Strain/Indicator: V-79/8-AZAGUANINE, Metabolic Activation: NONE, Method: SUSPENSION/PLATE) was “active; positive” and the mutagenic call (Test System: CHINESE HAMSTER V-79, Strain/Indicator: V-79/8-AZAGUANINE, Metabolic Activation: S-9, Method: SUSPENSION/PLATE) was “active; positive”. For the same compound, the mutagenic call (Test System: CHINESE HAMSTER V-79, Strain/Indicator: V-79/OUABAIN, Metabolic Activation: NONE, Method: SUSPENSION/PLATE) was “inactive; negative”, the mutagenic call (Test System: CHINESE HAMSTER V-79, Strain/Indicator: V-79/OUABAIN, Metabolic Activation: S-9, Method: SUSPENSION/PLATE) was “inactive; negative” and the mutagenic call (Test System: UDS HAMSTER HEPATOCYTES, Strain/Indicator: THY INCORP, Metabolic Activation: NONE, Method: LIQUID SCINTILLATION COUNTING) was “active; positive”. For the same compound, the mutagenic call (Test System: UDS HUMAN HEPATOCYTES, Strain/Indicator: THY INCORP, Metabolic Activation: NONE, Method: AUTORADIOGRAPHY) was “active; positive”, the mutagenic call (Test System: UDS MOUSE HEPATOCYTES, Strain/Indicator: THY INCORP, Metabolic Activation: NONE, Method: AUTORADIOGRAPHY) was “active; positive” and the mutagenic call [2] was “inactive; negative”. For the same compound, the mutagenic call (Test System: UDS RAT HEPATOCYTES, Strain/Indicator: THY INCORP, Metabolic Activation: NONE, Method: LIQUID SCINTILLATION COUNTING) was “inactive; negative”.

Oc1ccc2ncccc2c1 was tested, and the mutagenic call [1] was “inactive; negative” and the mutagenic call (Test System: AMES SALMONELLA TYPHIMURIUM, Strain/Indicator: TA100, Metabolic Activation: RAT, LIVER, S-9, AROCLOR 1254 (10% OR 20%), Method: STANDARD PLATE) was “inactive; negative”.
